Test results from PMC11586995, “Screening and Characterization of Sialic Acid-Binding Variable Lymphocyte Receptors from Hagfish” (BioTech, 2024).
Entries after “also recorded” stand apart in the source; their conditions may differ.

Tested on: ccombodies 2D8, 5G11, 6D2, and 4A1
Test: Competitive ELISA of monosaccharide haptens against ccombody binding to BSA-CC-Neu5Ac
Set-up: species or system Eptatretus burgeri
Details: hapten 50 to 0.39 mM, all four candidates
Method: ELISA was carried out according to the method of Lazarte et al., with some modifications. Screening for sialic acid-binding ccombodies was carried out by coating 100 μL of a 300 ng/well BSA-CC-Neu5Ac glycoconjugate onto high-binding 96-well ELISA plates (Corning, Glendale, AZ, USA), along with BSA only (without CC) as a negative control. Plates were left standing overnight at 4 °C, after which they were washed three times with 1X TBST (10 mM Tris-HCl, 150 mM NaCl, and 0.5% Tween) to remove unbound antigen. Plates were blocked for 30 min with blocking buffer comprising 5% skimmed milk in 1× TBST at room temperature, then washed once with 1X TBST. Ccombody supernatants from HEK293F cells were then added onto the plates, incubated for 1 h 30 min, followed by washing three times with 1X TBST. Antigen bound ccombodies were detected with mouse anti-VLRB antibody (11G5) in blocking buffer by incubation for 1 h, followed by washing three times to remove unbound 11G5. Finally, bound 11G5 antibodies were detected by incubating for 1 h with HRP-conjugated goat anti-mouse IgG (1:5000 v/v in blocking buffer), then washed four times. Binding was quantified by the addition of 100 μL developing buffer composed of 42 mM 3,3′,5,5′-tetramethylbenzidine and 1% H2O2, then color development for 30 min at room temperature. The reaction was stopped by adding 50 μL of 2 M H2SO4. The absorbance was then read at 450 nm using an xMark (BIO-RAD, Hercules, CA USA) microplate reader. Competitive inhibition was determined through ELISA as presented earlier, with some modifications. Optimal subsaturating dilutions of ccombody-culture supernatants were used based on the preliminary antibody titration data. Competitive inhibitors, two-fold serially diluted (50 to 0.39 mM), were mixed with a constant amount of ccombody supernatant diluted in 5% skimmed milk in 1X TBST, then incubated for 1 h at room temperature. Next, 100 μL of the mixture was subsequently transferred into another 96-well ELISA plate containing a constant amount of antigen (500 ng/well) which was pre-blocked with 5% skimmed milk in 1X TBST. Antigen-bound ccombodies were detected by 11G5 and HRP-conjugated goat anti-mouse IgG. The normalized and background-corrected OD450 values were plotted against the ligand concentration, and the half-maximal inhibitory concentration (IC50) was computed by curve fitting using the Four Parameter Logistic (4PL) Curve Calculator [27]. Values are expressed as the mean of three determinations.

SMILES | Inhibition of ccombody binding by free hapten
CC(=O)N[C@@H]1[C@@H](O)[C@@H](O)[C@@H](CO)O[C@@H]1O [N-acetylgalactosamine] | No significant inhibition
CC(=O)N[C@H]1[C@H]([C@H](O)[C@H](O)CO)OC(O)(C(=O)O)C[C@@H]1O (stereo partly drawn) [Neu5Ac, N-acetylneuraminic acid] | strong inhibition; also recorded: strong inhibitory effects
OC[C@H]1OC(O)[C@H](O)[C@@H](O)[C@@H]1O (stereo partly drawn) [glucose] | No significant inhibition
OC[C@H]1OC(O)[C@@H](O)[C@@H](O)[C@@H]1O (stereo partly drawn) [mannose] | No significant inhibition

Now from value to compound:

Inhibition of ccombody binding by free hapten | SMILES
No significant inhibition | CC(=O)N[C@@H]1[C@@H](O)[C@H](O)[C@@H](CO)O[C@H]1O [N-acetylglucosamine]
No significant inhibition | O=C[C@H](O)[C@@H](O)[C@@H](O)[C@H](O)CO [galactose]
